Several values for one entry are separate records, joined by “and”; a condition that tells them apart may be missing. Equal entries are not always repeated. Where two headings read alike, the source gives them in different places.
How the values were obtained:
[1] = Quantum yield for generation of singlet oxygen, time-resolved 1O2 phosphorescence; assay type: physicochemical; conditions: air-saturated MeOH, TMR-Se as reference
HUT-78 cells = test: Cellular uptake and extrusion of photosensitizer (flow cytometry MFI); assay type: cell-based; conditions: ±SE; for Uptake MFI: 2.5 × 10^−7 M photosensitizer, 20 minutes exposure; for % Extrusion: percent change in MFI after 18 hour extrusion period, 2.5 × 10^−7 M
Experimental: Cellular Uptake and Extrusion of Chalcogenorhodamine Photosensitizers. […] Cellular uptake of the chalcogenorhodamine photosensitizers was measured after a 20 minute exposure to 2.5×10^−7 M photosensitizer in malignant T cells (HUT-78 cells, Table 2). Transmembrane movement of the photosensitizers in the secretory direction (basolateral to apical) was measured after an 18-h extrusion period. As described above, the Se-containing molecules fluoresced at a lower intensity relative to the S-containing molecules. […] Overall, the PF6^− salts were more slowly extruded from cells relative to the chloride salts of the amide, with a greater difference in the extrusion kinetics noted between the thiorhodamine PF6 salts compared to the selenorhodamine chloride salts.

[2] = Fluorescence quantum yield in MeOH; assay type: physicochemical; conditions: for ΦF, MeOH: quantum yield for fluorescence in MeOH; for ΦF of sulfur analogue relative to selenium analogue: MeOH
P-gp = P-gp (Homo sapiens, UniProt P08183); conditions: cited from earlier work
P-gp, sequence (P08183 whole entry): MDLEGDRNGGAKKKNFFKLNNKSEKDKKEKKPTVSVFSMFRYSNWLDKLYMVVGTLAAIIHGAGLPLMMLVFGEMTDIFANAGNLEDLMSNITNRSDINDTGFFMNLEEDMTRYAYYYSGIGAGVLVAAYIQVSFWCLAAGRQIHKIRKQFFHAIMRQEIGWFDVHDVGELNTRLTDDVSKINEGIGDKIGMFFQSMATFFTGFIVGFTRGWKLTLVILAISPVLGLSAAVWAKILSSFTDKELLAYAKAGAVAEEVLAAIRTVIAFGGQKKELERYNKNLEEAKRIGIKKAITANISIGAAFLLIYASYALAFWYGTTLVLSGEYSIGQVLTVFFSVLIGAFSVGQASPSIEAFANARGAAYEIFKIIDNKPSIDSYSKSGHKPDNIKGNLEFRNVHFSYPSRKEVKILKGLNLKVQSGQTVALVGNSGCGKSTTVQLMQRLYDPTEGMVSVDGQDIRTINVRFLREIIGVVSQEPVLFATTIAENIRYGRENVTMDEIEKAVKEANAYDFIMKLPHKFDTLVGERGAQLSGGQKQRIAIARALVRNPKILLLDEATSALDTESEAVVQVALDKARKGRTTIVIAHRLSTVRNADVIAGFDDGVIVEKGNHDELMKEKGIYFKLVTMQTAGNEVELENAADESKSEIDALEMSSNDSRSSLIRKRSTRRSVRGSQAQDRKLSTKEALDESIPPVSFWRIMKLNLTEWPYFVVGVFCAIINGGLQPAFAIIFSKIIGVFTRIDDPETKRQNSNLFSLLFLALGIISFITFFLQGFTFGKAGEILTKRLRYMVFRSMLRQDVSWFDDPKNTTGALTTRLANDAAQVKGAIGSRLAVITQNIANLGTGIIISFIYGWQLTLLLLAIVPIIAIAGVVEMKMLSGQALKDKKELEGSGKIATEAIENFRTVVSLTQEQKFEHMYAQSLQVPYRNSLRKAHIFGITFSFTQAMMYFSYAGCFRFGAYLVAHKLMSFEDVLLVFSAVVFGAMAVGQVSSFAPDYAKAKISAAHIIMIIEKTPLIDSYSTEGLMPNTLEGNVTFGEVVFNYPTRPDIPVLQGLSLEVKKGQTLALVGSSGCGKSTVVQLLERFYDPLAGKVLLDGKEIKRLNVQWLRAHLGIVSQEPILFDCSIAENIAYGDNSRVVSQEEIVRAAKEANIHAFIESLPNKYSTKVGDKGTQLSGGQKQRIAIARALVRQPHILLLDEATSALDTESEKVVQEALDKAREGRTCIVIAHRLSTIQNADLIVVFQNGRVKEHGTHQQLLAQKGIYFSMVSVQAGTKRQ

[3] = test system: immunomagnetically-selected CD3+ cells; test: Phototoxicity: cell survival by FACS (Annexin 5/7AAD) 18 hours after PD; assay type: cell-based; conditions: 5.0×10^−8 M, 5 J/cm^2 light, FACS 18 hours after PD
Text: Selective phototoxicity of Chalcogenorhodamine Photosensitizers. Based on the rapid extrusion kinetics and low potential for toxicity in resting cells, we selected four amide-containing half-julolidine analogues for further analysis (2-S—Cl, 2-Se—Cl, 4-S—Cl, and 4-Se—Cl). These photosensitizers are associated with high singlet oxygen quantum yields (Table I). As a result, very low concentrations of these agents are required for phototherapy. For all PD experiments, immunomagnetically-selected CD3^+ cells were suspended in a photosensitizer-rich media of 5.0×10^−8 M for 20 minutes followed by 30 minutes in a photosensitizer-free media. Cells were then exposed to 5 J/cm^2 of light followed by real-time measurement of OCR and ECAR. […] We next evaluated the effects of PD on cell survival. For these experiments, FACS analysis was performed 18 hours after PD. Cell survival was identified by failure to bind Annexin 5 and 7AAD, and percent survival was calculated as the difference in the absolute number of cells between PD and control (non-PD samples) samples.

resting T cells = test: Dark toxicity: bioenergetics (O2 consumption rate) of resting T cells; conditions: 5.0×10^−7 M
[4] = n-octanol / PBS pH 7.4, shake flask

SMILES | log P (pH 7.4) | Φ(^1O2), MeOH [1] | Uptake MFI (HUT-78 cells) | % Extrusion (HUT-78 cells) | ΦF, MeOH [2] | log P [4] | effect on ATPase activity in P-gp (P-gp) | ΦF of sulfur analogue relative to selenium analogue [2] | cell death after PD [3] | dark toxicity (resting T cells)
CCN(CC)C(=S)c1ccc(-c2c3ccc(=[N+](C)C)cc-3[se]c3cc4c(cc23)C(C)(C)CCN4C)s1.[Cl-] [3-Se—Cl, N-(6-(5-(diethylcarbamothioyl)thiophen-2-yl)-1,4,4-trimethyl-3,4-dihydro-1H-seleno-chromeno[3,2-g]quinolin-9(2H)-ylidene)-N-methylmethanaminium Chloride] | 2.41 ± 0.04 | 0.54±0.03 | 5480 (±666) | 88.65 (±1.21) % | 0.008 ± 0.002 | – | – | – | – | –
CN1CCC(C)(C)c2cc3c(-c4ccc(C(=O)N5CCCCC5)s4)c4ccc(=[N+](C)C)cc-4sc3cc21.F[P-](F)(F)(F)(F)F [2-S—PF6] | – | – | 71978 | 91.79 (±1.16) % | 0.09 ± 0.01 | 1.2 | stimulate ATPase activity | – | – | –
CN(C)c1ccc2c(-c3ccc(C(=O)N4CCCCC4)s3)c3cc4c5c(c3[s+]c2c1)CCCN5CCC4.[Cl-] [6-S—Cl] | – | – | 122500 | 82.10 (±1.17) % | 0.36 ± 0.01 | 2.69 ± 0.02 | – | roughly 30 fold | – | –
CN(C)c1ccc2c(-c3ccc(C(=O)N4CCCCC4)s3)c3cc4c5c(c3[se+]c2c1)CCCN5CCC4.[Cl-] [6-Se—Cl, 12-(Dimethylamino)-2,3,6,7-tetrahydro-9-(N-piperidyl-2-thienyl-5-carboxamido)-1H,5H-selenoxantheno[2,3,4-ij]quinolizin-14-ium hexafluorophosphate(V)] | 2.74 ± 0.02 | 0.23 ± 0.03 | 14910 | 88.39 (±1.13) % | 0.011 ± 0.002 | – | – | – | – | –
CN(C)c1ccc2c(-c3ccc(C(=S)N4CCCCC4)s3)c3cc4c5c(c3[se+]c2c1)CCCN5CCC4.[Cl-] [5-Se—Cl] | – | 0.13±0.03 and 0.13 ± 0.02 | 12814 (±1256) | 85.03 (±2.90) % | 0.009 ± 0.002 | 3.00 ± 0.02 | – | – | – | –
CCN(CC)C(=O)c1ccc(-c2c3ccc(=[N+](C)C)cc-3sc3cc4c(cc23)C(C)(C)CCN4C)s1.F[P-](F)(F)(F)(F)F [4-S—PF6] | – | – | 66500 | 92.20 (±0.55) % | 0.09 ± 0.01 | 1.5 | stimulate ATPase activity | – | – | –
CN(C)c1ccc2c(-c3ccc(C(=O)N4CCCCC4)s3)c3cc4c5c(c3[s+]c2c1)CCCN5CCC4.F[P-](F)(F)(F)(F)F [6-S—PF6] | – | – | 114190 | 82.54 (±1.17) % | 0.36 ± 0.01 | 1.9 | stimulate ATPase activity | – | – | –
CCN(CC)C(=S)c1ccc(-c2c3ccc(N(C)C)cc3[s+]c3c4c5c(cc23)CCCN5CCC4)s1.[Cl-] [7-S—Cl] | – | – | 63950 (±5511) | 74.88 (±3.62) % | – | 2.55 ± 0.02 | – | – | – | –
CN1CCC(C)(C)c2cc3c(-c4ccc(C(=S)N5CCCCC5)s4)c4ccc(=[N+](C)C)cc-4sc3cc21.F[P-](F)(F)(F)(F)F [1-S—PF6] | – | – | 30229 (±1124) | 84.16 (±3.00) % | 0.07 ± 0.01 | 1.2 | inhibit ATPase activity | – | – | –
CN1CCC(C)(C)c2cc3c(-c4ccc(C(=S)N5CCCCC5)s4)c4ccc(=[N+](C)C)cc-4sc3cc21.[Cl-] [1-S—Cl] | – | – | 30070 (±2481) | 84.97 (±2.87) % | 0.07 ± 0.01 | 1.92 ± 0.08 | – | – | – | –
CCN(CC)C(=O)c1ccc(-c2c3ccc(=[N+](C)C)cc-3sc3cc4c(cc23)C(C)(C)CCN4C)s1.[Cl-] [4-S—Cl] | – | – | 64332 | 92.08 (±0.49) % | 0.09 ± 0.01 | 2.16 ± 0.02 | – | – | Significant cell death | not associated with any significant dark toxicity
CCN(CC)C(=S)c1ccc(-c2c3ccc(N(C)C)cc3[se+]c3c4c5c(cc23)CCCN5CCC4)s1.[Cl-] [7-Se—Cl, 12-(Dimethylamino)-2,3,6,7-tetrahydro-9-(5-(diethylcarbamothioyl)-thiophen-2-yl)-1H,5H-selenoxantheno[2,3,4-ij]quinolizin-14-ium chloriode] | 3.00 ± 0.02 | – | 14935 (±1810) | 81.23 (±2.56) % | – | – | – | – | – | –
CN(C)c1ccc2c(-c3ccc(C(=S)N4CCCCC4)s3)c3cc4c5c(c3[s+]c2c1)CCCN5CCC4.F[P-](F)(F)(F)(F)F [5-S—PF6] | – | – | 80192 (±4122) | 76.52 (±4.79) % | 0.28 ± 0.01 | 1.7 | inhibit ATPase activity | – | – | –
CCN(CC)C(=S)c1ccc(-c2c3ccc(N(C)C)cc3[s+]c3c4c5c(cc23)CCCN5CCC4)s1.F[P-](F)(F)(F)(F)F [7-S—PF6] | – | – | 87456 (±10089) | 73.25 (±2.15) % | – | 2.7 | inhibit ATPase activity | – | – | –
CN1CCC(C)(C)c2cc3c(-c4ccc(C(=O)N5CCCCC5)s4)c4ccc(=[N+](C)C)cc-4sc3cc21.[Cl-] [2-S—Cl] | – | – | 50993 | 92.70 (±0.74) % | 0.09 ± 0.01 | 2.26 ± 0.04 | – | – | Significant cell death | –
CN(C)c1ccc2c(-c3ccc(C(=S)N4CCCCC4)s3)c3cc4c5c(c3[s+]c2c1)CCCN5CCC4.[Cl-] [5-S—Cl] | – | – | 76661 (±5618) | 76.13 (±5.21) % | 0.30 ± 0.01 | 2.97 ± 0.06 | – | roughly 30 fold | – | –
CN1CCC(C)(C)c2cc3c(-c4ccc(C(=S)N5CCCCC5)s4)c4ccc(=[N+](C)C)cc-4[se]c3cc21.[Cl-] [1-Se—Cl, N-methyl-N-(1,4,4-trimethyl-6-(5-(piperidine-1-carbonothioyl)thiophen-2-yl)-3,4-dihydro-1H-selenochromeno[3,2-g]quinolin-9(2H)-ylidene)methanaminium Chloride] | – | 0.44 ± 0.03 | 6162 (±633) | 90.06 (±1.95) % | 0.008 ± 0.001 | 1.61 ± 0.06 | – | – | – | –
CCN(CC)C(=S)c1ccc(-c2c3ccc(=[N+](C)C)cc-3sc3cc4c(cc23)C(C)(C)CCN4C)s1.[Cl-] [3-S—Cl] | – | – | 38237 (±2684) | 86.81 (±0.89) % | 0.07 ± 0.01 | 1.98 ± 0.06 | – | – | – | –
CCN(CC)C(=S)c1ccc(-c2c3ccc(=[N+](C)C)cc-3sc3cc4c(cc23)C(C)(C)CCN4C)s1.F[P-](F)(F)(F)(F)F [3-S—PF6] | – | – | 45685 (±2726) | 84.91 (±1.57) % | 0.07 ± 0.01 | 1.7 | inhibit ATPase activity | – | – | –
CCN(CC)C(=O)c1ccc(-c2c3ccc(N(C)C)cc3[s+]c3c4c5c(cc23)CCCN5CCC4)s1.[Cl-] [8-S—Cl] | – | – | 114750 | 78.55 (±2.35) % | – | 2.65 ± 0.02 | – | – | – | not associated with any significant dark toxicity

From patent US20170096636A1, “METHODS AND COMPOUNDS FOR PHOTOTHERAPY WITH CHALCOGENORHODAMINE PHOTOSENSITIZERS” (Wake Forest University Health Sciences, priority 2014, published 2017)
